According to patent publication US5530126A, “Process for the preparation of substituted 6-(pyrazol-3yl)-1,4-benzoxazin-3-ones” (Monsanto Company, priority 1994, dated 1996):
Values joined by “and” are separate entries in the source; they are usually repeats but may differ in a detail not shown here. Equal entries are not always repeated.

Experiments:
Assay type in all cases: in vivo
[1] = tested on: Velvetleaf; test: Post-emergence herbicide test; conditions: for inhibition at 11210 g/ha: Abutilon theophrasti, 11.21 kg/ha, read-out: % plant inhibition (Vele)
Excerpt: (§1) Topsoil is placed in aluminum pans having holes in the bottom and compacted to a depth of 0.95 to 1.27 cm from the top of the pan. A predetermined number of seeds of each of several dicotyledonous and monocotyledonous annual plant species and/or vegetative propagules for the perennial plant species are placed on the soil and pressed into the soil surface. The seeds and/or vegetative propagules are covered with soil and leveled. The pans are then placed on a bench in the greenhouse and watered from below as needed. After the plants reach the desired age (two to three weeks), each pan, is removed individually to a spraying chamber and sprayed by means of an atomizer, operating at a spray pressure of 170.3 kPa (10 psig) at the application rates noted. In the spray solution is an amount of an emulsifying agent mixture to give a spray solution or suspension which contains about 0.4% by volume of the emulsifier. The spray solution or suspension contains a sufficient amount of the candidate chemical in order to give application rates of the active ingredient corresponding to those shown in Tables 8 and 8A, while applying a total amount of solution or suspension equivalent to 1870 L/Ha (200 gallons/acre). The pans were returned to the greenhouse and watered as before and the injury to the plants as compared to the control is observed at approximately 10-14 days (usually 11 days) and in some instances observed again at 24-28 days (usually 25 days) after spraying. The post-emergent herbicidal activity shown in these tables is the percent inhibition of each plant species.

[2] = tested on: Wild buckwheat; test: Post-emergence herbicide test; conditions: Fallopia convolvulus, 11.21 kg/ha, read-out: % plant inhibition (Wibw)
Excerpt: as §1

[3] = tested on: Indian Mustard; test: Post-emergence herbicide test; conditions: Brassica juncea, 11.21 kg/ha, read-out: % plant inhibition (Inmu)
Excerpt: as §1

[4] = tested on: Yellow nutsedge; test: Post-emergence herbicide test; conditions: Cyperus, read-out: % plant inhibition (Yens); for inhibition at 11210 g/ha: 11.21 kg/ha
Excerpt: as §1

[5] = tested on: Seedling johnsongrass; test: Post-emergence herbicide test; conditions: Sorghum halepense, 11.21 kg/ha, read-out: % plant inhibition (Sejg)
Excerpt: as §1

[6] = tested on: Downy Brome; test: Post-emergence herbicide test; conditions: Bromus tectorum, 11.21 kg/ha, read-out: % plant inhibition (Dobr)
Excerpt: as §1

[7] = tested on: Barnyardgrass; test: Post-emergence herbicide test; conditions: Echinochloa crus-galli, 11.21 kg/ha, read-out: % plant inhibition (Bygr)
Excerpt: as §1

[8] = tested on: Cocklebur; test: Post-emergence herbicide test; conditions: for inhibition at 11210 g/ha: Xanthium strumarium, 11.21 kg/ha, read-out: % plant inhibition (Cobu)
Excerpt: as §1

[9] = tested on: Annual bluegrass; test: Post-emergence herbicide test; conditions: 11.21 kg/ha, read-out: % plant inhibition (Anbg)
Excerpt: as §1

[10] = tested on: Morningglory; test: Post-emergence herbicide test; conditions: for inhibition at 11210 g/ha: 11.21 kg/ha
Excerpt: as §1

[11] = tested on: Velvetleaf; test: Pre-emergence herbicide test; conditions: Abutilon theophrasti, read-out: % plant inhibition (Vele); for inhibition at 11210 g/ha: 11.21 kg/ha
Procedure: (§2) The tests for pre-emergence herbicide activity are conducted as follows:
(§3) Topsoil is placed in an aluminum pan and compacted to a depth of 0.95 to 1.27 cm from the top of the pan. On the top of the soil is placed a predetermined number of seeds of each of several monocotyledonous and dicotyledonous annual plant species and/or vegetative propagules of various perennial plant species. A known amount of the active ingredient dissolved or suspended in an organic solvent, e.g., acetone, or water as carrier is then applied directly to the seed bed, which is then covered with a layer of untreated topsoil to level fill the pan. After treatment, the pans are moved to a greenhouse bench where they are watered from below as needed to give adequate moisture for germination and growth.
(§4) Approximately 10-14 days (usually 11 days) after seeding and treating, the pans are observed and the results (% inhibition) are recorded.
(§5) Tables 7 and 7A below summarize the results of the pre-emergence herbicidal activity tests of compounds of this invention in weeds. The herbicidal rating shown in these tables is the percent inhibition of each plant species. The plant species usually regarded as weeds which are utilized in one set of tests, the data for which are shown in the tables, are identified by letter headings above the columns in accordance with the following legend: […]

[12] = tested on: Wild buckwheat; test: Pre-emergence herbicide test; conditions: Fallopia convolvulus, read-out: % plant inhibition (Wibw); for inhibition at 11210 g/ha: 11.21 kg/ha
Procedure: as §2, §3, §4, §5

[13] = tested on: Indian Mustard; test: Pre-emergence herbicide test; conditions: Brassica juncea, read-out: % plant inhibition (Inmu); for inhibition at 11210 g/ha: 11.21 kg/ha
Procedure: as §2, §3, §4, §5

[14] = tested on: Yellow nutsedge; test: Pre-emergence herbicide test; conditions: Cyperus, read-out: % plant inhibition (Yens); for inhibition at 11210 g/ha: 11.21 kg/ha
Procedure: as §2, §3, §4, §5

[15] = tested on: Seedling johnsongrass; test: Pre-emergence herbicide test; conditions: Sorghum halepense, read-out: % plant inhibition (Sejg); for inhibition at 11210 g/ha: 11.21 kg/ha
Procedure: as §2, §3, §4, §5

[16] = tested on: Downy Brome; test: Pre-emergence herbicide test; conditions: Bromus tectorum, read-out: % plant inhibition (Dobr); for inhibition at 11210 g/ha: 11.21 kg/ha
Procedure: as §2, §3, §4, §5

[17] = tested on: Barnyardgrass; test: Pre-emergence herbicide test; conditions: Echinochloa crus-galli, read-out: % plant inhibition (Bygr); for inhibition at 11210 g/ha: 11.21 kg/ha
Procedure: as §2, §3, §4, §5

[18] = tested on: Cocklebur; test: Pre-emergence herbicide test; conditions: Xanthium strumarium, read-out: % plant inhibition (Cobu); for inhibition at 11210 g/ha: 11.21 kg/ha
Procedure: as §2, §3, §4, §5

[19] = tested on: Annual bluegrass; test: Pre-emergence herbicide test; conditions: read-out: % plant inhibition (Anbg); for inhibition at 11210 g/ha: 11.21 kg/ha
Procedure: as §2, §3, §4, §5

[20] = tested on: Morningglory; test: Pre-emergence herbicide test; conditions: Ipomoea, read-out: % plant inhibition (Mogl); for inhibition at 11210 g/ha: 11.21 kg/ha
Procedure: as §2, §3, §4, §5

[21] = Ipomoea, read-out: % plant inhibition (Mogl)

Row | SMILES | inhibition at 11210 g/ha [1] | inhibition at 11210 g/ha [2] | inhibition at 11210 g/ha [3] | inhibition at 11210 g/ha [4] | inhibition at 11210 g/ha [5] | inhibition at 11210 g/ha [6] | inhibition at 11210 g/ha [7] | inhibition at 11210 g/ha [8] | inhibition at 11210 g/ha [9] | inhibition at 11210 g/ha [10, 21] | inhibition at 11210 g/ha [11] | inhibition at 11210 g/ha [12] | inhibition at 11210 g/ha [13] | inhibition at 11210 g/ha [14] | inhibition at 11210 g/ha [15] | inhibition at 11210 g/ha [16] | inhibition at 11210 g/ha [17] | inhibition at 11210 g/ha [18] | inhibition at 11210 g/ha [19] | inhibition at 11210 g/ha [20] | also measured
1 | COc1cc(-c2c(Cl)c(C(F)(F)F)nn2C)c(F)cc1N [Compound 73] | 20% | 20% | 20% | 0% | 0% | 0% | 0% | 10% | 0% | 0% | 50% | 0% | 20% | 0% | 0% | 0% | 0% | 0% | 0% | 0% | –
2 | Cn1nc(-c2ccc(Cl)cc2Cl)c(Cl)c1C(F)(F)F [Compound 85] | 100% | 100% | 20% | 20% | 90% | 50% | 70% | 40% | 60% | 100% | 100% | 100% | 100% | 0% | 100% | 100% | 100% | 40% | 100% | 100% | –
3 | Cn1nc(-c2cc(OCC(=O)OC(C)(C)C)c(Cl)cc2F)c(Cl)c1C(F)(F)F [Compound 294, (2-Chloro-5-(4-chloro-1-methyl-5-(trifluoromethyl)-1H-pyrazol-3-yl)-4-fluorophenoxy)acetic acid, 1,1-dimethylethyl ester] | – | – | – | – | – | – | – | – | – | – | – | – | – | – | – | – | – | – | – | – | % plant inhibition (Vele) ([1]; 1.12 kg/ha): 50% and 80%; inhibition at 1120 g/ha ([4]; 1.12 kg/ha): 0%; % plant inhibition (Cobu) ([8]; 1.12 kg/ha): 50%; % plant inhibition (Mogl) ([10]; 1.12 kg/ha): 90%; inhibition at 1120 g/ha ([10]; Ipomoea, 1.12 kg/ha, read-out: % plant inhibition (Mogl)): 80%; inhibition at 1120 g/ha ([11]; 1.12 kg/ha): 70%; inhibition at 1120 g/ha ([12]; 1.12 kg/ha): 90%; inhibition at 1120 g/ha ([13]; 1.12 kg/ha): 0%; inhibition at 1120 g/ha ([14]; 1.12 kg/ha): 0%; inhibition at 1120 g/ha ([15]; 1.12 kg/ha): 20%; inhibition at 1120 g/ha ([16]; 1.12 kg/ha): 20%; inhibition at 1120 g/ha ([17]; 1.12 kg/ha): 20%; inhibition at 1120 g/ha ([18]; 1.12 kg/ha): 80%; inhibition at 1120 g/ha ([19]; 1.12 kg/ha): 0%; inhibition at 1120 g/ha ([20]; 1.12 kg/ha): 70%
4 | Cn1nc(C(F)(F)F)c(Cl)c1-c1cc(F)c(Cl)cc1Cl [Compound 80] | 60% | – | 0% | 0% | 0% | 0% | 0% | 10% | 0% | 10% | 100% | 90% | 80% | 0% | 80% | 70% | 70% | 60% | 90% | 60% | –
